Measurements published in publication PMC13534789, “Molecular Glue Degraders Enhance CAPRIN1‐Dependent Lysosomal Degradation of APP and Reduce Amyloid β in Alzheimer's Disease” (Advanced Science, 2026).

Columns and labels:
[1] = tested on: APP trafficking through the endosomal‐lysosomal pathway; test: Confocal colocalization of APP / CAPRIN1 with organelle markers; format: cell-based, human; conditions: for APP–LAMP1 colocalization: AD iPSC-Ns
Protocol: Cells were grown on glass cover slips coated with 1% Matrigel and treated with drugs. Cells were washed, fixed, permeabilized, blocked, and incubated in primary antibodies diluted in blocking solution (1% v/v BSA solution/5% Goat serum in PBS containing 0.1% Triton X‐100) overnight at 4°C. The cells were washed three times with PBS and incubated in secondary antibodies in a blocking solution for 1 h at room temperature, then washed with PBS, followed by HOECHST staining (Invitrogen) for 5 min, and washed with PBS. The glass coverslips were put on a slide‐in mounting medium ([…]), and the edges were sealed with coverslip sealant (BIOTIUM). Image data were captured and processed with a confocal microscope system (Olympus Fluoview FV1000 or Leica DIVE) and the ImageJ program. For 3D organoids staining, organoids were fixed in 10% formalin overnight at room temperature, followed by incubation in 30% sucrose solution overnight at room temperature, embedded in optimal cutting temperature compound (OCT, FisherScientific), and kept at ‐80°C overnight. Frozen samples were sectioned at 10 µm using a cryostat (Leica) and mounted on microscope slides (Fisherbrand superfrost plus, FisherScientific). Before immunolabeling, sections were rinsed in PBS for 5 min, permeabilized for 30 min in PBS containing 0.3% Triton‐X 100, blocked for 1 h in PBS containing 5% BSA and 0.1% Triton‐X 100, and incubated with primary antibodies diluted in the same blocking solution. Then, secondary staining, mounting, and imaging were followed.
ImageJ (Fiji) program (NIH, Bethesda, MD, USA) was used o analyze images. Pearson's correlation coefficients were calculated with the JACoP plugin from two channels (BIOP). For colocalization/trafficking analysis with organelles in iPSC‐Ns, HEK293 cells, and 3D organoids, APP or CAPRIN1 with organelles signals were segmented using a trainable weka segmentation plugin in Fiji as previously described. Colocalized areas were calculated in the image calculator tool ([…] function) to get an overlayed area for the segmented signals, followed by using the analyze particle tool in Fiji to determine by > 1‐pixel overlapping of the segmented signal. To determine the fluorescence intensity, the corrected total cell fluorescence (CTCF) was used using the formula: CTCF = Integrated Density—(Area of selected cell x Mean fluorescence of background readings), as described previously. Bright‐field images of immunoperoxidase‐stained and Thioflavin S‐stained brain sections were exported as 16‐bit RGB TIFF files and analyzed using ImageJ (Fiji), following previously established protocols. To isolate the DAB signal for quantification, color deconvolution was performed using the “H DAB” setting in the Color Deconvolution plugin in ImageJ. The resulting “Colour_2” image, corresponding to the DAB chromogen, was converted to 8‐bit grayscale for further analysis. Manual thresholding was applied to the DAB channel using the threshold adjustment tool in ImageJ. […] Regions of interest (ROIs), specifically the subiculum, hippocampus, and cortex, were manually delineated based on anatomical landmarks and saved using the ROI Manager. For each ROI, the DAB‐positive area was quantified using the Analyze Particles plugin with default particle size settings. The percentage of DAB‐positive area was calculated as the ratio of the DAB‐positive area to the total area of each ROI.

CAPRIN1–APP interaction = CAPRIN1–APP interaction (Homo sapiens, UniProt P05067+Q14444); test: CAPRIN1–APP interaction in cells (co-IP, confocal colocalization); format: cell-based; design: endogenous in cells; host or cells: AG27606-Ns, sAD2.3-Ns (iPSC-derived neurons) and their lysates; conditions: 10 µM, 24 h; for APP–CAPRIN1 colocalization (confocal, Pearson's coefficient): AG27606-Ns and sAD2.3-Ns
CAPRIN1–APP interaction, sequence (Q14444 2-709 limits assumed): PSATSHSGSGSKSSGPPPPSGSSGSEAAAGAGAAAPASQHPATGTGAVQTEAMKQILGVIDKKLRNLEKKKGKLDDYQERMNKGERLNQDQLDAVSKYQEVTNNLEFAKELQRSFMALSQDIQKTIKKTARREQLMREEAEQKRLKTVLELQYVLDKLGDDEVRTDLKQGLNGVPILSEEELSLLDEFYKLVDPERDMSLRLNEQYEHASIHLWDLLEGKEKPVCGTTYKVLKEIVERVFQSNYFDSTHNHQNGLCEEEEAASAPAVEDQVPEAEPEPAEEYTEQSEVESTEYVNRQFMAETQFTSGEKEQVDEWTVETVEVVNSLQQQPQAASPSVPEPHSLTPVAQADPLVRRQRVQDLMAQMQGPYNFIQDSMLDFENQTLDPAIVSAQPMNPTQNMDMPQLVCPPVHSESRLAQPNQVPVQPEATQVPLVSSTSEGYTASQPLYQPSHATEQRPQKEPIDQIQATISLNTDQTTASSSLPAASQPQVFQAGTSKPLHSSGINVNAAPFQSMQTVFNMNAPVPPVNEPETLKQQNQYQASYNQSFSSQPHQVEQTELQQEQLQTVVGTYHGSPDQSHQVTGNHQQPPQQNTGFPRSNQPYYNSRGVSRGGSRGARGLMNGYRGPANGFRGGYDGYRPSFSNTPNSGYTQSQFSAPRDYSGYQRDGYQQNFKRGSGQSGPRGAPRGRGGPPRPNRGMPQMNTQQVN
CAPRIN1–APP interaction, sequence (P05067 18-695 isoform P05067-4 limits assumed): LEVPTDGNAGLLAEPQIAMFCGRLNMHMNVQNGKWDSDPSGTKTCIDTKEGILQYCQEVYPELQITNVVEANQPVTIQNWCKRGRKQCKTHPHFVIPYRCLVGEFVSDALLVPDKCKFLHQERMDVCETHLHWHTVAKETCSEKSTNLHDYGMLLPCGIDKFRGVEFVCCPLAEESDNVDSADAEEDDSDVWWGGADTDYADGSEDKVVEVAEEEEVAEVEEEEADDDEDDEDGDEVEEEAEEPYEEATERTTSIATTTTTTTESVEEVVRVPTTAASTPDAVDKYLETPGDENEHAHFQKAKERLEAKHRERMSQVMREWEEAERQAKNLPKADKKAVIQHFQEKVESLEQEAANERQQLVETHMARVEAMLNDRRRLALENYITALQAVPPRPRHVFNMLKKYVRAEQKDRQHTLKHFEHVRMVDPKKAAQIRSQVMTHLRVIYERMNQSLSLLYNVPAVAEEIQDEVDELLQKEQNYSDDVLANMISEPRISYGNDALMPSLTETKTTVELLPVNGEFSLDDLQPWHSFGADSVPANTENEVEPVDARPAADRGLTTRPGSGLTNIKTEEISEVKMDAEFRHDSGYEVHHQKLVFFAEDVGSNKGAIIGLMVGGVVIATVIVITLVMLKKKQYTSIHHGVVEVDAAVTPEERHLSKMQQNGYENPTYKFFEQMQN
Protocol: Cells were lysed in 1% Triton X‐100 buffer (50 mM Tris (pH 7.4), 150 mM NaCl, 10% glycerol, 1% Triton X‐100, 1 mM EDTA) or RIPA buffer (50 mM Tris (pH7.5), 150 mM NaCl, 0.5% NP40, 0.5% deoxycholate, 0.1% SDS) supplemented with 1 mM PMSF, protease and phosphatase inhibitors. For immunoprecipitation, cell lysates (0.5–1 mg) were incubated with the primary antibodies (1–2 µg) overnight at 4°C and mixed with protein G beads for 4 h. The immunoprecipitants were washed with 1% Triton X‐100 buffer 3 times and eluted with Laemmli buffer, followed by western blot. Immunoprecipitations were performed using the following approaches: (i) Tagged CAPRIN1 immunoprecipitation (HEK293 overexpression assays): HEK293 cells were co‐transfected with APP constructs (including APP695‐HiBiT) and Flag‐ or Myc‐tagged CAPRIN1. CAPRIN1 was immunoprecipitated using anti‐Flag or anti‐Myc antibodies, and co‐precipitated APP was detected by immunoblot; (ii) Endogenous APP immunoprecipitation: APP was immunoprecipitated using anti‐APP antibody (Sigma, A8717), followed by immunoblotting for CAPRIN1. Where indicated, reciprocal immunoprecipitation using anti‐CAPRIN1 antibody was performed, followed by APP detection; (iii) CAPRIN1 immunoprecipitation: In selected experiments, CAPRIN1 was immunoprecipitated using anti‐CAPRIN1 antibody (Proteintech, 15112‐1‐AP), and co‐precipitated proteins including APP and LAMP1 were analyzed by immunoblot; (iv) HiBiT‐based pull‐down assays: In HEK293 cells expressing APP695‐HiBiT, APP constructs were immunoprecipitated using anti‐HiBiT antibody (Promega, N7200), followed by detection of CAPRIN1. Western blot bands were quantified using Fiji (ImageJ) with background subtraction and normalized to loading controls.
Cells were grown on glass cover slips coated with 1% Matrigel and treated with drugs. Cells were washed, fixed, permeabilized, blocked, and incubated in primary antibodies diluted in blocking solution (1% v/v BSA solution/5% Goat serum in PBS containing 0.1% Triton X‐100) overnight at 4°C. The cells were washed three times with PBS and incubated in secondary antibodies in a blocking solution for 1 h at room temperature, then washed with PBS, followed by HOECHST staining (Invitrogen) for 5 min, and washed with PBS. The glass coverslips were put on a slide‐in mounting medium ([…]), and the edges were sealed with coverslip sealant (BIOTIUM). […]
ImageJ (Fiji) program (NIH, Bethesda, MD, USA) was used o analyze images. Pearson's correlation coefficients were calculated with the JACoP plugin from two channels (BIOP). […] Colocalized areas were calculated in the image calculator tool ([…] function) to get an overlayed area for the segmented signals, followed by using the analyze particle tool in Fiji to determine by > 1‐pixel overlapping of the segmented signal. […]

| SMILES | APP–LAMP1 colocalization ([1]; 10 µM, 24 h) | Colocalization of APP and CAPRIN1 with GGA1 ([1]; AG27606 neurons, 10 µM, 24 h) | Colocalization of APP and CAPRIN1 with SorLA ([1]; AG27606 neurons, 10 µM, 24 h) | APP–CAPRIN1 colocalization (confocal, Pearson's coefficient) (CAPRIN1–APP interaction) | APP colocalization with EEA1, Rab7 and LAMP1 ([1]; AG27606-Ns, 10 µM, 0, 3 or 7 h) | CAPRIN1 colocalization with Rab7 and LAMP1 ([1]; AG27606-Ns, 10 µM, 0, 3 or 7 h) | CAPRIN1–APP interaction (APP IP, CAPRIN1 immunoblot) (CAPRIN1–APP interaction; AG27606-Ns) | CAPRIN1–APP interaction (co-IP) (CAPRIN1–APP interaction; HEK-APP695 cells) |
| --- | --- | --- | --- | --- | --- | --- | --- | --- |
| COc1cccc(NC(=O)Nc2nc3ccc(C(=O)N4CCOCC4)cc3s2)c1 [compound 0152] | increased APP–LAMP1 colocalization | enhanced the colocalization of both APP and CAPRIN1 with GGA1 | reduced the colocalization of both APP and CAPRIN1 with SorLA | increased colocalization of APP and CAPRIN1 |  |  |  |  |
| N#Cc1cccc(NC(=O)Nc2nc3ccc(C(=O)N4CCOCC4)cc3s2)c1 [compound 0043] | increased APP–LAMP1 colocalization |  |  | increased co‐localization of APP and CAPRIN1 | significantly increased APP colocalization with all three markers | increase its colocalization with both markers | enhances CAPRIN1‐APP interaction | enhanced the interaction between CAPRIN1 and APP |
